How the values were obtained:
ER = molecular target: T1, ER (Homo sapiens, UniProt P03372); test: In-cell western blot analysis, relative ER percentage (compounds B1-B126); type: cell-based; details: ER degradation, 16 hours, read-out: ICW DC50
T1 construct: endogenous in cells; probably T47D or MCF-7
T1 sequence (P03372 1-595): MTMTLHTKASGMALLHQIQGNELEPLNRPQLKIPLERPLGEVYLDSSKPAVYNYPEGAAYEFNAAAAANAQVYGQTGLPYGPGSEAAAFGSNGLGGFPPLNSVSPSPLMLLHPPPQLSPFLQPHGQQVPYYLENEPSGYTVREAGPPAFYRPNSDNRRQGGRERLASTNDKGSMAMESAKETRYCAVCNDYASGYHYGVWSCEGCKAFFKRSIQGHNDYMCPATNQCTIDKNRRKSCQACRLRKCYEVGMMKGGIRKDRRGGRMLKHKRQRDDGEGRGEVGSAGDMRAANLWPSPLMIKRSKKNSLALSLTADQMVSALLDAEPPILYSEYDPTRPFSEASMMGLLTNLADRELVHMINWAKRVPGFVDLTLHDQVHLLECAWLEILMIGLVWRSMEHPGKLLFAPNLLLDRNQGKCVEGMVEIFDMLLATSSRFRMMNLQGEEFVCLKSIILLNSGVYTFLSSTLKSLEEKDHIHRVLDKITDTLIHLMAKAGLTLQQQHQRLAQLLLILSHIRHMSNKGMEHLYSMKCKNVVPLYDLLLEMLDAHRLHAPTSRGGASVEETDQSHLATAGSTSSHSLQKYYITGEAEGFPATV
In short: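 Cells seeded at 40,000 or 10,000 per well overnight were treated with compound (final 0.5% DMSO) for 16 hours, then fixed with formaldehyde. ER was detected with primary antibodies and anti-rabbit-680/anti-mouse-800 secondaries on a CLX reader. Signal is expressed relative to untreated and DMSO wells set as 100%.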

[1] = Cell growth assay, WST-8 (compounds B1-B126); type: cell-based; details: 96 h; T47D cell line, WST-8, 4 days; read-out: Cell growth inhibition in T47D cell line IC50
In short: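 Cells seeded at 1500/well overnight, treated one day later with compound doses for 4 days, then 10% WST-8 added for 2.5 h at 37° C in CO2. Absorbance at 450 nm, expressed relative to vehicle control over three independent repeats.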

DC50 (ER) | Structure (SMILES) | IC50 [1]
< 10 nM | C[C@@H]1Cc2c(ccc3[nH]ncc23)[C@@H](c2c(F)cc(N3CCC4(CC3)CN(C(=O)CN3CCN5c6cc7c(cc6OC[C@@H]5C3)C(=O)N(C3CCC(=O)NC3=O)C7)C4)cc2F)N1CC(F)F (stereo partly drawn) [Compound B20, 3-((S)-3-(2-(7-(4-((6S,8R)-7-(2,2-difluoroethyl)-8-methyl-6,7,8,9-tetrahydro-3H-pyrazolo[4,3-f]isoquinolin-6-yl)-3,5-difluorophenyl)-2,7-diazaspiro[3.5]nonan-2-yl)-2-oxoethyl)-8-oxo-1,2,3,4,4a,5,8,10-octahydro-9H-pyrazino[1′,2′: 4,5][1,4]oxazino[2,3-f]isoindol-9-yl)piperidine-2,6-dione] | < 1 nM
< 10 nM | C[C@@H]1Cc2c(ccc3[nH]ncc23)[C@@H](c2ccc(N3CC4(CCC(CN5CCN6c7ccc8c(c7OC[C@@H]6C5)CN(C5CCC(=O)NC5=O)C8=O)CC4)C3)cn2)N1CC(F)F (stereo partly drawn) [Compound B87, 3-((S)-7-((2-(6-((6S,8R)-7-(2,2-difluoroethyl)-8-methyl-6,7,8,9-tetrahydro-3H-pyrazolo[4,3-f]isoquinolin-6-yl)pyridin-3-yl)-2-azaspiro[3.5]nonan-7-yl)methyl)-1-oxo-1,3,5,5a,6,7,8,9-octahydro-2H-pyrazino[1′,2′:4,5][1,4]oxazino[2,3-e]isoindol-2-yl)piperidine-2,6-dione] | 1 to 10 nM
< 10 nM | C[C@H]1Cc2c(ccc3[nH]ncc23)[C@H](c2ccc(N3CC4(CCC(CN5CCN6c7ccc8c(c7OC[C@@H]6C5)CN([C@@H]5CCC(=O)NC5=O)C8=O)CC4)C3)cn2)N1CC(F)(F)F [Compound B124, (R)-3-((S)-7-((2-(6-((6R,8S)-8-methyl-7-(2,2,2-trifluoroethyl)-6,7,8,9-tetrahydro-3H-pyrazolo[4,3-f]isoquinolin-6-yl)pyridin-3-yl)-2-azaspiro[3.5]nonan-7-yl)methyl)-1-oxo-1,3,5,5a,6,7,8,9-octahydro-2H-pyrazino[1′,2′:4,5][1,4]oxazino[2,3-e]isoindol-2-yl)piperidine-2,6-dione] | < 1 nM
< 10 nM | C[C@@H]1Cc2c(ccc3[nH]ncc23)[C@@H](c2c(F)cc(N3CCC4(CN(CC(=O)N5CCN6c7cc8c(cc7OC[C@@H]6C5)C(=O)N(C5CCC(=O)NC5=O)C8)C4)C3)cc2F)N1CC(F)F (stereo partly drawn) [Compound B41, 3-((S)-3-(2-(6-(4-((6S,8R)-7-(2,2-difluoroethyl)-8-methyl-6,7,8,9-tetrahydro-3H-pyrazolo[4,3-f]isoquinolin-6-yl)-3,5-difluorophenyl)-2,6-diazaspiro[3.4]octan-2-yl)acetyl)-8-oxo-1,2,3,4,4a,5,8,10-octahydro-9H-pyrazino[1′,2′:4,5][1,4]oxazino[2,3-f]isoindol-9-yl)piperidine-2,6-dione] | < 1 nM
< 10 nM | C[C@@H]1Cc2c(ccc3[nH]ncc23)[C@@H](c2ccc(N3CCC4(CC3)CC(CN3CCN5c6cc7c(cc6N(C)C[C@@H]5C3)C(=O)N(C3CCC(=O)NC3=O)C7)C4)cn2)N1CC(F)(F)F (stereo partly drawn) [Compound B61, 3-((S)-6-methyl-3-((7-(6-((6S,8R)-8-methyl-7-(2,2,2-trifluoroethyl)-6,7,8,9-tetrahydro-3H-pyrazolo[4,3-f]isoquinolin-6-yl)pyridin-3-yl)-7-azaspiro[3.5]nonan-2-yl)methyl)-8-oxo-2,3,4,4a,5,6,8,10-octahydropyrazino[1,2-a]pyrrolo[3,4-g]quinoxalin-9(1H)-yl)piperidine-2,6-dione] | < 1 nM
< 10 nM | C[C@@H]1Cc2c(ccc3[nH]ncc23)[C@@H](c2ccc(N3CC4(CCC(CN5CCN6c7ccc8c(c7OC[C@H]6C5)CN(C5CCC(=O)NC5=O)C8=O)CC4)C3)cn2)N1CC(F)(F)F (stereo partly drawn) [Compound B108, 3-((R)-7-((2-(6-((6S,8R)-8-methyl-7-(2,2,2-trifluoroethyl)-6,7,8,9-tetrahydro-3H-pyrazolo[4,3-f]isoquinolin-6-yl)pyridin-3-yl)-2-azaspiro[3.5]nonan-7-yl)methyl)-1-oxo-1,3,5,5a,6,7,8,9-octahydro-2H-pyrazino[1′,2′:4,5][1,4]oxazino[2,3-e]isoindol-2-yl)piperidine-2,6-dione] | < 1 nM
10 to 100 nM | C[C@@H]1Cc2c(ccc3[nH]ncc23)[C@@H](c2ccc(N3CCC4(CCN(C(=O)CN5Cc6cc7c(cc6C5)C(=O)N(C5CCC(=O)NC5=O)C7=O)CC4)CC3)cn2)N1CC(F)F (stereo partly drawn) [Compound B49, 6-(2-(9-(6-((6S,8R)-7-(2,2-difluoroethyl)-8-methyl-6,7,8,9-tetrahydro-3H-pyrazolo[4,3-f]isoquinolin-6-yl)pyridin-3-yl)-3,9-diazaspiro[5.5]undecan-3-yl)-2-oxoethyl)-2-(2,6-dioxopiperidin-3-yl)-6,7-dihydropyrrolo[3,4-f]isoindole-1,3(2H,5H)-dione] | > 10 nM

Second part, the compound before the results:

Structure (SMILES) | DC50 (ER) | IC50 [1]
C[C@@H]1Cc2c(ccc3[nH]ncc23)[C@@H](c2c(F)cc(NC3CC4(C3)CN(C(=O)CN3CCN5c6cc7c(cc6OC[C@@H]5C3)C(=O)N(C3CCC(=O)NC3=O)C7)C4)cc2F)N1CC(F)F (stereo partly drawn) [Compound B39, 3-((S)-3-(2-(6-((4-((6S,8R)-7-(2,2-difluoroethyl)-8-methyl-6,7,8,9-tetrahydro-3H-pyrazolo[4,3-f]isoquinolin-6-yl)-3,5-difluorophenyl)amino)-2-azaspiro[3.3]heptan-2-yl)-2-oxoethyl)-8-oxo-1,2,3,4,4a,5,8,10-octahydro-9H-pyrazino[1′,2′:4,5][1,4]oxazino[2,3-f]isoindol-9-yl)piperidine-2,6-dione] | < 10 nM | < 1 nM
C[C@@H]1Cc2c(ccc3[nH]ncc23)[C@@H](c2c(F)cc(N3CCC(CN4CC(N5CCN6c7cc8c(cc7OC[C@@H]6C5)C(=O)N(C5CCC(=O)NC5=O)C8)C4)CC3)cc2F)N1CC(F)F (stereo partly drawn) [Compound B46, 3-((S)-3-(1-((1-(4-((6S,8R)-7-(2,2-difluoroethyl)-8-methyl-6,7,8,9-tetrahydro-3H-pyrazolo[4,3-f]isoquinolin-6-yl)-3,5-difluorophenyl)piperidin-4-yl)methyl)azetidin-3-yl)-8-oxo-1,2,3,4,4a,5,8,10-octahydro-9H-pyrazino[1′,2′:4,5][1,4]oxazino[2,3-f]isoindol-9-yl)piperidine-2,6-dione] | < 10 nM | < 1 nM
C[C@@H]1Cc2c(ccc3[nH]ncc23)[C@@H](c2ccc(N3CCC4(CC3)CC(CN3CCN5c6ccc7c(c6OC[C@H]5C3)CN(C3CCC(=O)NC3=O)C7=O)CO4)cn2)N1CC(F)(F)F (stereo partly drawn) [Compound B91, 3-((5aR)-7-((8-(6-((6S,8R)-8-methyl-7-(2,2,2-trifluoroethyl)-6,7,8,9-tetrahydro-3H-pyrazolo[4,3-f]isoquinolin-6-yl)pyridin-3-yl)-1-oxa-8-azaspiro[4.5]decan-3-yl)methyl)-1-oxo-1,3,5,5a,6,7,8,9-octahydro-2H-pyrazino[1′,2′:4,5][1,4]oxazino[2,3-e]isoindol-2-yl)piperidine-2,6-dione] | < 10 nM | 1 to 10 nM
C[C@@H]1Cc2c(ccc3[nH]ncc23)[C@@H](c2ccc(N3CCC4(CC3)CC(CN3CCN5c6c(ccc7c6CN(C6CCC(=O)NC6=O)C7=O)OC[C@@H]5C3)C4)cn2)N1CC(F)(F)F (stereo partly drawn) [Compound B109, 3-((S)-9-((7-(6-((6S,8R)-8-methyl-7-(2,2,2-trifluoroethyl)-6,7,8,9-tetrahydro-3H-pyrazolo[4,3-f]isoquinolin-6-yl)pyridin-3-yl)-7-azaspiro[3.5]nonan-2-yl)mcthyl)-3-oxo-1,3,7,7a,8,9,10,11-octahydro-2H-pyrazino[1′,2′:4,5][1,4]oxazino[3,2-e]isoindol-2-yl)piperidine-2,6-dione] | > 100 nM | 1 to 10 nM
COc1cc(N2CCC3(CC2)OCC(CN2CCN4c5ccc6c(c5OC[C@@H]4C2)CN([C@@H]2CCC(=O)NC2=O)C6=O)CO3)ccc1[C@@H]1c2ccc3[nH]ncc3c2C[C@@H](C)N1CC(F)F [Compound B116, (R)-3-((S)-7-((9-(4-((6S,8R)-7-(2,2-difluoroethyl)-8-methyl-6,7,8,9-tetrahydro-3H-pyrazolo[4,3-f]isoquinolin-6-yl)-3-methoxyphenyl)-1,5-dioxa-9-azaspiro[5.5]undecan-3-yl)methyl)-1-oxo-1,3,5,5a,6,7,8,9-octahydro-2H-pyrazino[1′,2′:4,5][1,4]oxazino[2,3-e]isoindol-2-yl)piperidine-2,6-dione] | < 10 nM | < 1 nM
C[C@@H]1Cc2c(ccc3[nH]ncc23)[C@@H](c2c(F)cc(N3CCC(CN4CCC5(CC4)COc4c5ccc5c4CN(C4CCC(=O)NC4=O)C5=O)CC3)cc2F)N1CC(F)F (stereo partly drawn) [Compound B114, 3-(1′-((1-(4-((6S,8R)-7-(2,2-difluoroethyl)-8-methyl-6,7,8,9-tetrahydro-3H-pyrazolo[4,3-f]isoquinolin-6-yl)-3,5-difluorophenyl)piperidin-4-yl)methyl)-6-oxo-6,8-dihydro-2H,7H-spiro[furo[2,3-e]isoindole-3,4′-piperidin]-7-yl)piperidine-2,6-dione] | > 100 nM | < 1 nM

— patent publication US20260256925A1, “INDAZOLE DERIVATIVES AS ESTROGEN RECEPTOR DEGRADERS” (REGENTS OF THE UNIVERSITY OF MICHIGAN, priority 2022, published 2026)
